Here are results for 4 compounds from patent US20240287134A1, “PEPTIDES FOR USE AS SENOTHERAPEUTIC AGENTS” (FUNDACIÓN PROFESOR NOVOA SANTOS, priority 2019, published 2024).

Where a SMILES comes first, the peptide text is derived from it. Where no end group is shown, it is not given here. The star is where a group is joined. X1 = CN(C)c1ccc2c(c1)Oc1cc(N(C)C)ccc1C21OC(=O)c2ccc(C(=O)*)cc21; TMR = fluorophore attached at the N-terminus

Common to all, as to type: cell-based, human
Data set [1] relates to Cx43 in OA chondrocytes. The data set is described as follows: Western-blot of Cx43 levels. The note with it: 16 hours, vs untreated (UT). The source says:
(§1) FIG. 4. Decrease in Cx43 levels in chondrocytes from patients with OA treated with peptides YSA1, YTP1 and TUB1. […] The decrease in the levels and activity of Cx43 activates the re-differentiation of the chondrocyte and decreases the accumulation of senescent cells, restoring the adult chondrocyte phenotype and tissue regeneration capacity. […] The results obtained were confirmed by western-blot using α-tubulin as loading control. […] (d) Chondrocytes isolated from donors with osteoarthritis were treated for 16 hours with the YTP1 peptide (150 μM) and the Cx43 levels were analysed by western blot, using α-tubulin as loading control. […] (e) Chondrocytes isolated from donors with OA were treated for 16 hours with the 8Arg-YSA1 peptide (5 μM) and the Cx43 levels were analysed by western blot, using α-tubulin as loading control. […] (g) Chondrocytes isolated from donors with OA were treated for 16 hours with the TUB1 peptide (5 μM) and the Cx43 levels were analysed by western blot, using the intensity of the Ponceau stain as loading control.
The cell pellet isolated from patients with OA and treated with the peptides or untreated were mechanically and chemically lysed using a needle of 29 gauges (BD Medical) in the presence of a cold lysis buffer (50 mM Tris HCl pH 7.5; 50 mM EDTA pH 8, 0.5% NP-40, 1% Triton X-100, 150 mM NaCl). Once the cell extracts were obtained, they were diluted in loading buffer (10% SDS, 200 mM Tris HCl pH 6.8, 50% glycerol, 0.1% Bromophenol Blue, 10% […]). Equal amounts of the cell extracts were separated on a 10% Acrylamide/Bisacrylamide (Acr/Bis) gel with SDS. The proteins were subsequently transferred to a polyvinylidene fluoride membrane (PVDF, Merck) in a Trans-Blot® SD Semi-Dry Transfer Cell (Bio-Rad). It was verified that the transfer was correct by staining the membrane with ATX Ponceau S (Sigma-Aldrich). To block possible nonspecific binding with the membrane, 1-hour incubation was performed at room temperature with a 5% milk solution in a TTBS buffer (20 mM Tris, 150 mM NaCl, 0.05% Tween-20). […]

In data set [2] the test system is primary chondrocytes from articular cartilage of patients with OA. The experiment in a line: MTT cell viability assay to study toxicity. The note with it: 1-10-60-600 μM, 16 hours, with respect to untreated cells. How it is done: FIG. 2. Cell viability assay to study toxicity. A MTT viability assay was carried out in primary chondrocytes from articular cartilage of patients with OA treated with increasing concentrations of the peptide 8Arg-YSA1 (1-10-60-600 μM, with the octaarginine sequence and the TMR), for 16 hours.
An initial number of cells (5,000-10,000) were seeded in a 96-well culture plate and treated with different concentrations of the peptides. After the treatment, the medium was removed from each well and 10 μL of the MTT reagent was added to 100 μL of fresh medium and incubated at 37° C. for 4 hours. To solubilize the formazan crystals of the MTT reagent, it was incubated with DMSO at room temperature and under stirring for 30 minutes. Absorbance was measured at 570 nm in a plate reader (Nanoquant Infinite M200, TECAN).
Such as it is explained in FIG. 2, a MTT viability assay was carried out on primary chondrocytes from articular cartilage of patients with OA treated with increasing concentrations of the peptide 8Arg-YSA1 (1-10-60-600 μM, with the arginine sequence and the TMR), for 16 hours.

For data set [3], the system named is Cx43 in OA chondrocytes. The data set is described as follows: Immunofluorescence for the detection of Cx43. The note with it: 200 μM, against untreated (UT) cells.
From the text: as §1
Primary cultures of chondrocytes at a confluence of 70-80% were treated with mimetic peptides of Cx43, and fixed with 2-4% paraformaldehyde (PFA, Sigma-Aldrich) in phosphate buffered saline (PBS, MP Biomedicals) for 10 minutes at room temperature. […]

Data set [4] concerns gap junctions (GJs) formed by Cx43 in OA chondrocytes. The data set is described as follows: Scrape Loading/Dye Transfer (SL/DT) assay. The following applies: 150 μM, 16 hours, vs untreated (UT). How it is done: FIG. 5. Peptides YSA1 and YTP1 decrease intercellular communication through gap junctions (GJs) formed by Cx43 in OA chondrocytes. (a) Scrape Loading/Dye Transfer (SL/DT) assay in which the transfer of Lucifer Yellow (LY) fluorophore between contact chondrocytes through GJs is studied.
Cells were seeded in culture plates to an approximate 90% confluence. After treating the cells with the peptides, the medium was removed and washed twice with PBS. The fluorescent compound Lucifer Yellow (LY, Cell Projects Ltd © Kent) 0.4% in PBS was added and two cuts were made, one with a scalpel and the other with a needle on the cell monolayer. The cells were incubated for 5-7 minutes at 37° C. to allow the transfer of the LY between undamaged cells in contact, after which the LY was removed, and cells were washed with PBS. The cells were fixed with 4% formaldehyde for 10 minutes. The visualization was performed in an inverted fluorescence microscope (Inverted Research Microscope Eclipse Ti, Nikon).
A Scrape Loading/Dye Transfer (SL/DT) test was performed in which the transfer of Lucifer Yellow fluorophore (LY) between contact chondrocytes through GJs was studied.

Where [5] appears, read: 150 μM, α-tubulin loading control.

In the case of “Nt-FKGVKDRVKGK-Ct ({TMR}-FKGVKDRVKGK) [TUB1, TMR-labelled]”, the “Cx43 levels (western blot)” value in data set [1] (5 μM, Ponceau stain loading control) was “reduced the Cx43 levels”.

Turning to `CC(C)C[C@H](NC(=O)[C@H](C)NC(=O)CNC(=O)[C@H](CO)NC(=O)[C@@H](NC(=O)[C@H](C)NC(=O)[C@H](Cc1c[nH]cn1)NC(=O)[C@H](Cc1ccc(O)cc1)NC(=O)[C@@H]1CCCN1C(=O)[C@H](CC(=O)O)NC(=O)[C@H](CO)NC(=O)[C@H](CCCCN)NC(=O)CNC(=O)[C@H](CCCNC(=N)N)NC(=O)[C@H](CCCNC(=N)N)NC(=O)[C@H](CCCNC(=N)N)NC(=O)[C@H](CCCNC(=N)N)NC(=O)[C@H](CCCNC(=N)N)NC(=O)[C@H](CCCNC(=N)N)NC(=O)[C@H](CCCNC(=N)N)NC(=O)[C@H](CCCNC(=N)N)NC(=O)c1ccc2c(c1)C1(OC2=O)c2ccc(N(C)C)cc2Oc2cc(N(C)C)ccc21)[C@@H](C)O)C(=O)N[C@@H](CO)C(=O)N1CCC[C@H]1C(=O)N[C@@H](C)C(=O)N[C@@H](CCCCN)C(=O)N[C@@H](CC(=O)O)C(=O)O` [8Arg-YSA1] (X1-RRRRRRRRGKSDPYHATSGALSPAKD-OH), in data set [2], the “cell viability (MTT)” value is listed as “did not affect cell viability”.

On to “Nt-GKSDPYHATSGALSPAKD-Ct ({TMR}-GKSDPYHATSGALSPAKD) [YSA1, residues 242-259 of the C-terminal domain of Cx43; labelled at N-terminus with TMR fluorophore]”, for which the “positivity for Cx43 (immunofluorescence)” value in data set [3] is reported as “decrease in positivity”. The “Cx43 levels (western blot)” value in data set [1] (setting [5]) was “significantly reduced the levels of Cx43”. Besides, the “cell coupling through GJs (Lucifer Yellow transfer)” value in data set [4] was “decrease in cell coupling”.

Take “Nt-GKSDPYHATTGPLSPAKD-Ct ({TMR}-GKSDPYHATTGPLSPAKD) [YTP1, TMR-labelled]”: the “positivity for Cx43 (immunofluorescence)” value in data set [3] is “decrease in positivity”. For the same compound, in data set [1] (setting [5]), the “Cx43 levels (western blot)” value was “reduced the levels of Cx43”. Further, the “cell coupling through GJs (Lucifer Yellow transfer)” value in data set [4] is “decreased cell coupling”.
